{
  "source": "patent US20230303693A1",
  "about": "“BISPECIFIC ANTIBODY AGAINST CD3 AND CD20 IN COMBINATION THERAPY FOR TREATING DIFFUSE LARGE B-CELL LYMPHOMA” (GENMAB A/S, priority 2022, published 2023)",
  "key": {"T cells [1]": {"tested_on": "T cells"}, "T cells [2]": {"tested_on": "T cells", "test": "T cell viability after 16 hours pre-incubation with CHP components", "settings": "pretreatment of T cells, 16 hours (data not shown)"}, "[3]": {"tested_on": "CD20-expressing Raji-luc tumor cells", "settings": "NOD-SCID mice injected with Raji-luc tumor cells and PBMCs; even in presence of excess IgG1-RTX-FEAR; cited from earlier work"}, "[4]": {"tested_on": "primary DLBCL and follicular lymphoma patient biopsies", "settings": "cited from earlier work"}, "[5]": {"tested_on": "relapsed or refractory (R/R) B-NHL, highly refractory large B-cell lymphoma", "settings": "monotherapy, n=157; cited from earlier work"}},
  "note": "Where two headings read alike, the source gives them in different places.",
  "data": [
    {"compound": "O=P1(N(CCCl)CCCl)NCCCO1", "note": "(stereo not drawn) [cyclophosphamide, 2H-1,3,2-Oxazaphosphorin-2-amine, N,N-bis(2-chloroethyl)tetrahydro-, 2-oxide]", "values": [
      {"measurement": "T cell viability", "setting": "T cells [1]", "result": "did not impact T cell viability"}
    ]},
    {"compound": "COc1cccc2c1C(=O)c1c(O)c3c(c(O)c1C2=O)C[C@@](O)(C(=O)CO)C[C@@H]3O[C@H]1C[C@H](N)[C@H](O)[C@H](C)O1", "note": "[doxorubicin]", "values": [
      {"measurement": "T cell viability", "setting": "T cells [2]", "result": "led to a reduction in T cell viability"}
    ]},
    {"compound": "epcoritamab", "values": [
      {"measurement": "tumor growth", "setting": "[3]", "result": "effectively reduce tumor growth"},
      {"measurement": "T-cell-mediated cytotoxicity", "setting": "[4]; biopsies taken a certain amount of time after administration of an anti-CD20 antibody", "result": "induced T-cell-mediated cytotoxicity"},
      {"measurement": "tumor cell kill", "setting": "[4]; biopsy taken 2 weeks after administering anti-CD20 antibody", "result": "up to 40%"},
      {"measurement": "complete response (CR) rate", "setting": "[5]", "result": 39, "unit": "%"},
      {"measurement": "median duration of response (DOR)", "setting": "[5]", "result": 12, "unit": "months"},
      {"measurement": "overall response rate (ORR)", "setting": "[5]", "result": 63, "unit": "%"},
      {"measurement": "safety profile", "setting": "[5]", "result": "manageable safety profile"}
    ]}
  ]
}
